The values below come from patent publication US12134607B2, “Crystals of tetrahydronaphthyl urea derivative” (MOCHIDA PHARMACEUTICAL CO., LTD., priority 2017, dated 2024).

The target in data set [1] is human TrkA protein (Homo sapiens (Human), UniProt P04629). Briefly: Evaluation on binding activity against human TrkA protein (TrkA LanthaScreen Eu Kinase Binding Assay). Conditions: result in words. The procedure: (Pharmacology Experiment 1): Evaluation on Binding Activity Against Human TrkA Protein
Measurements were made using TrkA LanthaScreen™ Eu Kinase Binding Assay (ThermoFisher SCIENTIFIC). Into 384 well plates (Corning), a 2.5 μL solution having each concentration of the test compound (1) diluted in Kinase buffer (ThermoFisher SCIENTIC) and a 2.5 μL having 15 nM TrkA enzyme (ThermoFisher SCIENTIFIC) were added. In addition, a 5 μL having 3 nM Eu-anti-His Tag […] (ThermoFisher SCIENTIFIC) and 5 μL having 30 nM Kinase™ Tracer 236 (ThermoFisher SCIENTIFIC) were added, and allowed to react at room temperature for 60 minutes. After the reaction, the fluorescence ratio was calculated as the binding amount of the test compound (1) with TrkA enzyme, by measuring the fluorescence intensity (Emission wavelength 615 nm) and TR-FRET (Emission wavelength 665 nm) of Europium by the excitation wavelength of 340 nm using EnVision 2100 (PerkinElmer). […]
The inhibitory activity of each crystal of the test compound (1), which is 1-((1R,2R)-2-hydroxy-4,4-dimethyl-1,2,3,4-tetrahydronaphthalen-1-yl)-3-(5-methyl-6-(2-methylpyrimidin-5-yl)-2-phenylpyridin-3-yl)urea can be assessed by IC50 value.
On the technique in general: In TR-FRET formats the signal depends on donor and acceptor labels being close together.

A short description of data set [2]: Safety observation in pharmacology experiments 3 and 4 in rats. The class given is in vivo. Conditions: oral administration. The procedure: (Pharmacology Experiment 3): Inhibitory Effect on NGF-Induced Vascular Permeability Increase in Rats
The inhibitory activity against TrkA in vivo was evaluated. Clipped back male Sprague-Dawley rats (CD(SD)IGS rats, Charles River, Japan) were orally administered test compound (1) dissolved or suspended in a solvent (dose volume: 5 mL/kg). Vehicle controls were treated orally with vehicle. […] A 200 μL of the formamide extract was transferred to a 96-well plate (Nunc), and the absorbance (wavelength: 620 nm) of Evans blue extracted into formamide was measured using SpectraMax (Molecular Device). […]
The analgesic effect of the test compound (1) was evaluated in a CFA-induced rat model. […]
Measurements were made 7 days after CFA administration. After calming the animals to the measurement environment for at least 1 hour, the footpads were stimulated with von Frey filaments according to the Dixon up-down method (Journal of Neuroscience Methods, Vol. 53, pp. 55-63, 1994), and then 50% threshold (g) was calculated by the following equation. […]

Sequence of human TrkA protein (P04629 33-796): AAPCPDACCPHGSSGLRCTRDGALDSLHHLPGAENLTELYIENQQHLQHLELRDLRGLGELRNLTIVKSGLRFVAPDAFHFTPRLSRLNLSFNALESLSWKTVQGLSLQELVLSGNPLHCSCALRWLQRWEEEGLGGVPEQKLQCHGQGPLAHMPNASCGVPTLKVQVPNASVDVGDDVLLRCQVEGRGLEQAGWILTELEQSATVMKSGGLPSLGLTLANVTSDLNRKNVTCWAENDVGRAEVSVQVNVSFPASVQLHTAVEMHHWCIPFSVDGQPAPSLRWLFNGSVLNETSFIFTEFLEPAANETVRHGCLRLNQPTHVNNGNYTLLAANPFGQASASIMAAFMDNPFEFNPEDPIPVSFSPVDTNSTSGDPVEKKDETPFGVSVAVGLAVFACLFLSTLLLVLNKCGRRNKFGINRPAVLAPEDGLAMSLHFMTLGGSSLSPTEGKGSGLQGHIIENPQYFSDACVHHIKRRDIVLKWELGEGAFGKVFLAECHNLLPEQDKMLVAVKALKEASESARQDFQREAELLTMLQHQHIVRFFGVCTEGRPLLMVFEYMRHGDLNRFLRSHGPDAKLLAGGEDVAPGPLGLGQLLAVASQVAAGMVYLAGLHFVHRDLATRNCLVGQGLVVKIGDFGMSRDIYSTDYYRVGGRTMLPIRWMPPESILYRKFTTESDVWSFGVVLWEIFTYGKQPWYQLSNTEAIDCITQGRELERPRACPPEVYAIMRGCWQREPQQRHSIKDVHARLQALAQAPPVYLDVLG

On to `Cc1ncc(-c2nc(-c3ccccc3)c(NC(=O)N[C@@H]3c4ccccc4C(C)(C)C[C@H]3O)cc2C)cn1` [Example 1, 1-((1R,2R)-2-hydroxy-4,4-dimethyl-1,2,3,4-tetrahydronaphthalen-1-yl)-3-(5-methyl-6-(2-methylpyrimidin-5-yl)-2-phenylpyridin-3-yl)urea], for which the TrkA inhibitory effect entry in data set [1] is listed as “excellent”. Further, the “Abnormalities in the safety test” value in data set [2] is listed as “no abnormalities”.
